“Also recorded” adds a separate entry of the source.
Test system: neurosphere (neural stem cells and/or neural progenitor cells induced from human pluripotent stem cells)
Assay: Functional evaluation of fatty acid (oleic acid) added to human serum albumin-added medium: neurosphere morphology
Type: cell-based
Conditions: 14 days' culturing
Description: Similar to Example 1, 2.1 mg/mL human serum albumin-added medium was produced. A medium was produced by adding oleic acid (Tokyo Chemical Industry Co., Ltd.) at a final concentration of 20 μM or 60 μM to this medium, and a medium without addition of oleic acid was produced, and neurospheres were cultured in these media. […] The medium was exchanged every 7 days and, after 14 days' culturing, the morphology of the neurosphere formed was observed under a microscope.

Compound: CCCCCCCC/C=C\CCCCCCCC(=O)O [oleic acid]
- morphology of the neurosphere formed (20 μM oleic acid in 2.1 mg/mL human serum albumin-added medium): showed a good neurosphere form
- morphology of the neurosphere formed (60 μM oleic acid in 2.1 mg/mL human serum albumin-added medium): show a black sphere with an irregular shape; also recorded: Many black sphere images with an irregular shape were confirmed

Source: patent US20180016554A1, “HUMAN SERUM ALBUMIN-CONTAINING CULTURE MEDIUM FOR GROWTH OF NEURAL STEM CELLS” (AJINOMOTO CO., INC., priority 2015, published 2018)
